The subject of series [1] is CuFi-1 cells. As to the kind of experiment: Fluorescence microscopic assay of airway surface liquid (ASL) pH in CuFi-1 cells. Format: cell-based, human. Here is the method:
Cell Lines and Growth Conditions. NuLi, CuFi-1, and CuFi-4 cells (Welsh Laboratory, University of Iowa) were grown from cryostock on Thermo Scientific BioLite Cell Culture Treated 75 cm^2 flasks. These flasks were previously coated with 4 mL of 60 μg/mL human placental collagen type IV (Sigma-Aldrich) for a minimum of 1 h at 37° C., rinsed twice with PBS, and then dried before seeding. The cells were cultured with 12 mL Bronchial Epithelial Cell Growth Medium (BEGM) BulletKit (Lonza CC-3170), which includes the basal medium and eight SingleQuots of supplements (bovine pituitary extract (BPE), 2 mL; hydrocortisone, 0.5 mL; hEGF, 0.5 mL; adrenaline, 0.5 mL; transferrin, 0.5 mL; insulin, 0.5 mL; retinoic acid, 0.5 mL; triiodothyronine, 0.5 mL). The gentamicin-AmB aliquot was discarded, and the medium was instead supplemented with 50 μg/mL penicillin-streptomycin (Corning Cellgro), 50 μg/mL gentamicin (Sigma-Aldrich G1397), and 2 μg/mL fluconazole (Sigma-Aldrich). […]
Fluorescence Microscopic Assay for Measurement of Airway Surface Liquid pH. […] Following dissolution in methanol, the AmB concentration in the stock suspension was measured in triplicate by absorbance spectroscopy. Concentrations were calculated from the absorbance at 406 nm (8406=164,000 M^−1 cm^−1) using Beer's law. […]
Small-diameter NuLi and CuFi cells were used for measurement of the ASL pH. […] ASL pH was measured 2 h later. […]

Series [2] in a line: Solubility of AmB in aqueous media. Format: physicochemical. The note with it: 37° C.
The subject of series [3] is CuFi-1 cells. To be noted: cited from earlier work; for ASL pH / ΔpH: ref [1]; for ΔpH: vs vehicle control.
The test system of series [4] is primary cultured airway epithelial cells from individuals with CF. To be noted: Primary human CF, 2 μM, ref [1], cited from earlier work.
The conditions of series [5]: cited from earlier work.
The next series relates to CuFi-4 cells. To be noted: cited from earlier work.
Series [6] is described as follows: Particle size of wet-milled AmB suspensions (Malvern Mastersizer). Format: physicochemical.

In brackets after ≈: the same amount, converted by molar mass. Where two headings read alike, the source gives them in different places.

Take `C[C@@H]1[C@H](O)[C@@H](C)/C=C/C=C/C=C/C=C/C=C/C=C/C=C/[C@H](O[C@@H]2O[C@H](C)[C@@H](O)[C@H](N)[C@@H]2O)C[C@@H]2O[C@](O)(C[C@@H](O)C[C@@H](O)[C@H](O)CC[C@@H](O)C[C@@H](O)CC(=O)O[C@H]1C)C[C@H](O)[C@H]2C(=O)O` [AmB, amphotericin B]: the “effect on ASL pH” value in the series on CuFi-1 cells [1] (CuFi-1, 2 μM in perfluorocarbon vehicle) is on record as “effective”. In the series with CuFi-1 cells [1] (CuFi-1, 50 μM AmB), the “effect on ASL pH” value is “not at a 50 μM AmB concentration”. Moreover, in series [2], the “solubility in Gamble's solution” value amounted to 0.2 µg/mL (≈ 0.216 µM), the “solubility in dilute Alveofact” value was determined as 0.2 µg/mL (≈ 0.216 µM) and the solubility in water is 0.5 µg/mL (≈ 0.541 µM). In addition, in the series with CuFi-1 cells [3] (CuFi-1, 2 μM), the “ASL pH” value is on record as 7.06 and the ΔpH result is reported as “+0.18”. For the same compound, in the series on CuFi-1 cells [3] (CuFi-1, 50 μM), the “ASL pH” value is recorded as 6.80 and the ΔpH result is recorded as “+0.02”. Besides, the “ASL pH” value in series [4] is given as 6.97. For the same compound, the ΔpH result in series [4] (vs vehicle control) is reported as “+0.21”. Also, in series [5], the “pKa amine group on the mycosamine ring” value is reported as 10.0 and the pKa carboxylate group is 5.7.
With `CC(C)(C)c1cc(C(C)(C)C)c(NC(=O)c2c[nH]c3ccccc3c2=O)cc1O` [Ivacaftor, ivacaftor], the “ASL pH” value is listed as 6.82 in the series on CuFi-1 cells [3] (CuFi-1, 2 μM) and 6.92 in the series on CuFi-4 cells (CuFi-4, 2 μM, ref [1]). The ΔpH entry in the series with CuFi-1 cells [3] (CuFi-1, 2 μM) is listed as “+0.07”; in the series on CuFi-4 cells (CuFi-4, 2 μM, vs vehicle control, ref [1]) it was “+0.17”. The “increase in ASL pH” value with CuFi-1 cells [3] (CuFi-1 cells with homozygous ΔF508 mutations) is reported as “minimal increase in ASL pH”; in the series with CuFi-4 cells (CuFi-4 cells), “about 0.2 pH units”.
On to `C[C@@H]1[C@H](O)[C@@H](C)/C=C/C=C/C=C/C=C/C=C/C=C/C=C/[C@H](O[C@@H]2O[C@H](C)[C@@H](O)[C@H](N)[C@@H]2O)C[C@@H]2O[C@](O)(C[C@@H](O)C[C@@H](O)[C@H](O)CC[C@@H](O)C[C@@H](O)CC(=O)O[C@H]1C)C[C@H](O)[C@H]2C(=O)O` [′202, amphotericin B], for which the “Primary Particle Size X50 after wet-milling” value in series [6] (1 pass (15 kpsi)) stood at 3.01 μm; in series [6] (3 passes (15, 15, 20 kpsi)) it was 2.16 μm. Also, the “Primary Particle Size X90 after wet-milling” value in series [6] (1 pass (15 kpsi)) was 6.93 μm; in series [6] (3 passes (15, 15, 20 kpsi)), 5.99 μm.
The like results for `C[C@@H]1[C@H](O)[C@@H](C)/C=C/C=C/C=C/C=C/C=C/C=C/C=C/[C@H](O[C@@H]2O[C@H](C)[C@@H](O)[C@H](N)[C@@H]2O)C[C@@H]2O[C@](O)(C[C@@H](O)C[C@@H](O)[C@H](O)CC[C@@H](O)C[C@@H](O)CC(=O)O[C@H]1C)C[C@H](O)[C@H]2C(=O)O` [′203, amphotericin B] were, in that order, 1.14 μm, 1.06 μm, 2.46 μm and 2.14 μm.

The record behind these values is patent publication US20260199383A1 (priority 2022, published 2026).
